{"source": "patent US20230365619A1", "about": "“CRYSTALLINE SODIUM CHOLESTERYL SULFATE” (Durect Corporation, priority 2020, published 2023)", "experiment": "Dynamic Vapor Sorption/Desorption (DVS)", "type": "physicochemical", "conditions": "FIG. 4", "data": [{"smiles": "CC(C)CCC[C@@H](C)[C@H]1CC[C@H]2[C@@H]3CC=C4C[C@@H](OS(=O)(=O)[O-])CC[C@]4(C)[C@H]3CC[C@]12C.[Na+]", "note": "[Form F, sodium cholesteryl sulfate]", "values": [{"measurement": "weight change upon desorption (DVS)", "setting": "desorption 95% to 5% relative humidity", "result": 20.8, "unit": "%"}, {"measurement": "weight gain on sorption (DVS)", "setting": "ramping from 5% to 95% relative humidity, 10% RH increments, nitrogen purge", "result": 23.8, "unit": "%"}, {"measurement": "DVS sorption profile (onset of weight gain)", "setting": "ramping from 5% to 95% relative humidity", "result": "little weight gain until 55% relative humidity"}]}]}
